# Measurements reported in patent US8604029B2, “2-[(2-substituted)-indolizin-3-yl]-2-oxo-acetamide derivatives as antifungal agents” (F2G Ltd British Body Corporate, priority 2006, dated 2013).
# Key:
# Assay in all cases: MIC measurement, YAG medium
# Assay type in all cases: cell-based
# [1] = system: Aspergillus fumigatus AF210; details: Aspergillus fumigatus, MIC banded into grades, strain AF210, read-out: MIC A. fumigatus 210
# Protocol: (§1) Between 1 and 5 mgs of compound were accurately weighed out into a sterile Eppendorf tube. The compound was dissolved in DMSO to give a solution containing […]. Tubes were stored at −20° C. until required.
# (§2) On the day of testing thawed solutions were vortex mixed to ensure homogeneity. 30 μL of solution was removed and added to 570 μL of sterile water in a separate sterile Eppendorf. The thoroughly mixed solution was used to prepare a series of doubling dilutions in water, in a deep well plate. Thirteen replicate plates were prepared using a Minitrak by aspirating 20 μL from each well into eleven clear polystyrene 96 well plates.
# (§3) Spores of Aspergillus spp. (Aspergillus fumigatus [two strains], Aspergillus terreus [two strains], Aspergillus niger and Aspergillus flavus) were harvested from cultures grown on Sabarauds agar for 5 days, and resuspended in PBS/Tween 80 to approx 1×10^7 cfu/mL. Other filamentous fungi (Absidia corymbifera, Fusarium solani, Rhizomucor, Scedosporium spp., Trichophyton spp.), were grown on Sabarauds agar for 2-10 days and spores/hyphae resuspended in PBS/Tween to give approx 1×10^7 cfu/mL. Candida species (Candida albicans, Candida glabrata, Candida krusei, Candida parapsilosis and Candida tropicalis) were grown on Sabarauds agar, cells were harvested from the agar using a sterile loop and resuspended in PBS/Tween 80 to approx 1×10^6 cfu/mL. Each organism suspension was diluted in RPMI medium, containing 2% glucose and 0.135 M MOPS buffer (pH 7.0) to 0.5-2×10^4 cfu/mL for Aspergillus spp. and other filamentous fungi and 0.5-2×10^3 cfu/mL for yeast. 80 μL of an organism suspension was added to each well of the plate containing drug dilutions.
# (§4) This produced MIC plates with a drug range 50-0.05 mg/L and organism inocula of 1-2×10^4 cfu/mL for Aspergillus spp. and other filamentous fungi and 1-2×10^3 cfu/mL for yeasts. All plates were incubated for 24-48 hrs at 35° C. Growth was assessed by monitoring the optical density at 485 nm for each well. The MIC of a compound is the lowest drug concentration that inhibits growth of an organism by >80% compared with a drug free control. MICs are recorded as mg/L. Other growth media can be used for susceptibility testing, and the activity of the described compounds can also be assessed in a medium comprising 1% glucose, 1% ammonium chloride and 0.5% yeast extract (YAG medium). To perform MIC tests in this medium, dilutions of compounds are prepared in microtitre plates as described above. Fungal strains to be tested are grown and harvested in an identical manner to that described above, each organism suspension is then diluted in YAG medium to 0.5-2×10^4 cfu/mL for Aspergillus spp. and other filamentous fungi and 0.5-2×10^3 cfu/mL for yeast. 80 μL of an organism suspension was added to each well of the plate containing drug dilutions. This produced MIC plates with a drug range 50-0.05 mg/L and organism inocula of 1-2×10^4 cfu/mL for Aspergillus spp. and other filamentous fungi and 1-2×10^3 cfu/mL for yeasts. All plates were incubated for 24 hrs at 35° C. Growth was assessed by monitoring the optical density at 485 nm for each well. The MIC of a compound is the lowest drug concentration that inhibits growth of an organism by >70% compared with a drug free control. MICs are recorded as mg/L. In cases where the MIC of an organism is […] mg/L the MIC is repeated using a concentration range of 0.5-0.0005 mg/L. MIC tests in YAG medium have more clear-cut endpoints and have slightly lower MICs than those performed in RPMI medium.
# (§5) The following organisms were tested: Absidia corymbifera, Aspergillus flavus, Aspergillus fumigatus AF293 and AF210, Aspergillus niger, Aspergillus terreus AT4 and AT49, Candida albicans, Candida glabrata, Candida krusei, Candida parapsilosis, Candida tropicalis, Fusarium solani, Rhizomucor sp., Scedosporium apiospermum, Scedosporium prolificans, Trichophyton mentagrophytes, and Trichophyton rubrum.
# Aspergillus terreus AT49 = details: Aspergillus terreus, MIC banded into grades, strain AT49, read-out: MIC A. terreus 49
# Protocol: as §1, §2, §3, §4, §5
# Aspergillus terreus = details: Aspergillus terreus, MIC banded into grades, strain not named in head (AT4)
# Protocol: as §1, §2, §3, §4, §5
# Aspergillus flavus = details: Aspergillus flavus, MIC banded into grades, lowest concentration inhibiting growth by >70%
# Protocol: as §1, §2, §3, §4, §5
# Aspergillus fumigatus = details: Aspergillus fumigatus; YAG medium; MIC banded into grades; strain AF293; read-out: MIC A. fumigatus
# Protocol: as §1, §2, §3, §4, §5
# Aspergillus niger = details: Aspergillus niger, MIC banded into grades
# Protocol: as §1, §2, §3, §4, §5
Compound,MIC (Aspergillus fumigatus) [µg/mL],further results
Cc1nc(C(C)C)cn1C(C)(C)c1cccc(NC(=O)C(=O)c2c(-c3ccccc3)cc3ccccn23)c1 [Example 25],> 10,MIC [1]: > 10 µg/mL; MIC (Aspergillus terreus AT49): 1 to 10 µg/mL; MIC (Aspergillus terreus): 1 to 10 µg/mL; MIC (Aspergillus flavus): 1 to 10 µg/mL; MIC (Aspergillus niger): > 10 µg/mL
CCOCCN(C1=NC(C)(C)CO1)c1ccc(NC(=O)C(=O)c2c(-c3ccccc3)cc3ccccn23)cc1 [Example 28],1 to 10,MIC [1]: 1 to 10 µg/mL; MIC (Aspergillus terreus AT49): 1 to 10 µg/mL; MIC (Aspergillus terreus): 1 to 10 µg/mL; MIC (Aspergillus flavus): 1 to 10 µg/mL; MIC (Aspergillus niger): < 1 µg/mL
"CCn1ccnc1Cc1ccc(NC(=O)C(=O)c2c(-c3ccccc3C)cc3ccccn23)cc1 [Example 30, N-[4-(3-Ethyl-1H-imidazol-2ylmethyl)-phenyl]-2-oxo-2-(2-o-tolyl-indolizin-3yl)-acetamide]",> 10,MIC [1]: > 10 µg/mL; MIC (Aspergillus terreus AT49): > 10 µg/mL; MIC (Aspergillus terreus): > 10 µg/mL; MIC (Aspergillus flavus): > 10 µg/mL; MIC (Aspergillus niger): > 10 µg/mL
"O=C(Nc1ccc(N2CCN(Cc3ccco3)CC2)cc1)C(=O)c1c(-c2ccccc2)cc2ccccn12 [Example 31, 4-[4-(2-Furan-2-yl-methyl-piperazin-yl)-phenyl]-2-oxo-2-(2-phenyl-indolizin-3-yl)-acetamide]",< 1,MIC [1]: < 1 µg/mL; MIC (Aspergillus terreus AT49): < 1 µg/mL; MIC (Aspergillus terreus): < 1 µg/mL; MIC (Aspergillus flavus): < 1 µg/mL; MIC (Aspergillus niger): < 1 µg/mL
"Cc1cc(OCCOc2ccc(NC(=O)C(=O)c3c(-c4ccccc4)cc4ccccn34)cc2)cc(C)n1 [Example 71, N-{4-[2-(2,6-Dimethyl-pyridin-4-yloxy)-ethoxy]-phenyl}-2-oxo-2-(2-phenyl-indolizin-3-yl)-acetamide]",< 1,–
"Cc1cc(C)nc(CCCCc2ccc(NC(=O)C(=O)c3c(-c4ccccc4)cc4ccccn34)cc2)c1 [Example 72, N-{4-[4-(4,6-Dimethyl-pyridin-2-yl)-butyl]-phenyl}-2-oxo-2-(2-phenyl-indolizin-3-yl)-acetamide]",< 1,–
"CCc1cccc(N2CCN(c3ccc(NC(=O)C(=O)c4c(-c5ccccc5)cc5ccccn45)cc3)CC2)n1 [Example 73, N-{4-[4-(6-ethyl-pyridin-2-yl)-piperazin-1-yl]-phenyl}-2-oxo-2-(2-phenyl-indolizin-3-yl)-acetamide]",< 1,–
"Cc1ccc(N2CCN(c3ccc(NC(=O)C(=O)c4c(-c5ccccc5)cc5ccccn45)cc3)CC2)nc1 [Example 74, N-{4-[4-(5-Methyl-pyridin-2-yl)-piperazin-1-yl]-phenyl}-2-oxo-2-(2-phenyl-indolizin-3-yl)-acetamide]",< 1,–
"CCc1ccnc(N2CCN(c3ccc(NC(=O)C(=O)c4c(-c5ccccc5)cc5ccccn45)cc3)CC2)c1 [Example 75, N-{4-[4-(4-ethyl-pyridin-2-yl)-piperazin-1-yl]-phenyl}-2-oxo-2-(2-phenyl-indolizin-3-yl)-acetamide]",< 1,–
"COCCOCCOc1cc(C)nc(N2CCN(c3ccc(NC(=O)C(=O)c4c(-c5ccccc5)cc5ccccn45)cc3)CC2)c1 [Example 76, N-[4-(4-{4-[2-(2-methoxy-ethoxy)-ethoxyl]-6-methyl-pyridin-2-yl}-piperazin-1-yl)-phenyl]-2-oxo-2-(2-phenyl-indolizin-3-yl)-acetamide]",< 1,–
"Cc1cc(C)nc(N(C)CCNc2ccc(NC(=O)C(=O)c3c(-c4ccccc4)cc4ccccn34)cc2)c1 [Example 78, N-(4-{2-[(4,6-Dimethyl-pyridin-2-yl)-methyl-amino]-ethylamino}-phenyl)-2-oxo-2-(2-phenyl-indolizin-3-yl)-acetamide]",< 1,–
"Cc1cc(C)nc(N2CCC(O)(c3ccc(NC(=O)C(=O)c4c(-c5ccccc5)cc5ccccn45)cc3)CC2)c1 [Example 79, N-[4-(4-hydroxy-4′,6′-dimethyl-3,4,5,6-tetrahydro-2H-[1,2′]-bipyridinyl-4-yl)-phenyl]-2-oxo-2-(2-phenyl-indolizin-3-yl)-acetamide]",> 10,–
"Cc1cc(C)nc(N2CCN(c3ccc(NC(=O)C(=O)c4c(-c5ccccc5)cc5ccccn45)c(C)c3)CC2)c1 [Example 80, N-{4-[4-(4,6-Dimethyl-pyridin-2-yl)-piperazin-1-yl]-2-methyl-phenyl}-2-oxo-2-(2-phenyl-indolizin-3-yl)-acetamide]",< 1,–
"COCc1cc(NC(=O)C(=O)c2c(-c3ccccc3)cc3ccccn23)ccc1N1CCN(c2cc(C)cc(C)n2)CC1 [Example 81, N-{4-[4-(4,6-Dimethyl-pyridin-2-yl)-piperazin-1-yl]-3-methoxymethyl-phenyl}-2-oxo-2-(2-phenyl-indolizin-3-yl)-acetamide]",< 1,–
"Cc1cc(C)nc(N2CCN(c3ccc(NC(=O)C(=O)c4c(-c5ccccc5)cc5ccccn45)cc3C)CC2)c1 [Example 82, N-{4-[4-(4,6-Dimethyl-pyridin-2-yl)-piperazin-1-yl]-3-methyl-phenyl}-2-oxo-2-(2-phenyl-indolizin-3-yl)-acetamide]",< 1,–
"COCc1cc(N2CCN(c3cc(C)cc(C)n3)CC2)ccc1NC(=O)C(=O)c1c(-c2ccccc2)cc2ccccn12 [Example 83, N-{4-[4-(4,6-Dimethyl-pyridin-2-yl)-piperazin-1-yl]-2-methoxymethyl-phenyl}-2-oxo-2-(2-phenyl-indolizin-3-yl)-acetamide]",< 1,–
"O=C(Nc1ccc(-c2cocn2)cc1)C(=O)c1c(-c2ccc(-c3ccccc3)cc2)cc2ccccn12 [Example 85, 2-(2-Biphenyl-4-yl-indolizin-3-yl)-N-(4-oxazol-4-yl-phenyl)-2-oxo-acetamide]",> 10,–
"O=C(Nc1ccc(N2CCN(c3cccc(CCO)n3)CC2)cc1)C(=O)c1c(-c2ccccc2)cc2ccccn12 [Example 88, N-(4-{4-[6-(2-hydroxy-ethyl)-pyridin-2-yl]-piperazin-1-yl}-phenyl)-2-oxo-2-(2-phenyl-indolizin-3-yl)-acetamide]",< 1,–
"O=C(Nc1ccc(N2CCN(c3cc(OCCO)ccn3)CC2)cc1)C(=O)c1c(-c2ccccc2)cc2ccccn12 [Example 89, N-(4-{4-[4-(2-Hydroxy-ethoxy)-pyridin-2-yl]-piperazin-1-yl}-phenyl)-2-oxo-2-(2-phenyl-indolizin-3-yl)-acetamide]",1 to 10,–
"O=C(Nc1ccc(NCCOc2ccccn2)cc1)C(=O)c1c(-c2ccccc2)cc2ccccn12 [Example 90, 2-Oxo-2-(2-phenyl-indolizin-3-yl)-N-{4-[2-(pyridin-2-yloxy)-ethylamino]-phenyl}-acetamide]",< 1,–
"Cc1cc(C)nc(CNc2ccc(NC(=O)C(=O)c3c(-c4ccccc4)cc4ccccn34)cc2)c1 [Example 91, N-{4-[(4,6-Dimethyl-pyridin-2-ylmethyl)-amino]-phenyl}-2-oxo-2-(2-phenyl-indolizin-3-yl)-acetamide]",< 1,–
"Cc1cc(C)nc(NCCNc2ccc(NC(=O)C(=O)c3c(-c4ccccc4)cc4ccccn34)cc2)c1 [Example 92, N-{4-[2-(4,6-dimethyl-pyridin-2-yl-amino)-ethylamino]-phenyl}-2-oxo-2-(2-phenyl-indolizin-3-yl)-acetamide]",< 1,–
